Test results published in US11306101B2 (Celgene Corporation, priority 2019, dated 2022).

Molecular target: T1, CK1α (Homo sapiens, UniProt P48729+Q96SW2)
T1 construct: expressed in transfected cells
Test: CK1α ePL degradation assay in MDS-L cells
Assay type: cell-based
Conditions: MDS-L cells expressing ePL-tagged CK1α; for DC50: concentration giving 50% CK1α degradation vs DMSO control; for Y: lowest measured CK1α level normalized to DMSO control
Procedure, shortened: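 Degradation efficiency is reported as Y value, the minimum CK1α level (percent of DMSO control) across doses. Readout used InCELL Hunter luminescent detection after MDS-L cell exposure at 37° C for stated times, doses 10 μM down to 0.0005 μM in 3-fold steps.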

T1 sequence (P48729 whole entry): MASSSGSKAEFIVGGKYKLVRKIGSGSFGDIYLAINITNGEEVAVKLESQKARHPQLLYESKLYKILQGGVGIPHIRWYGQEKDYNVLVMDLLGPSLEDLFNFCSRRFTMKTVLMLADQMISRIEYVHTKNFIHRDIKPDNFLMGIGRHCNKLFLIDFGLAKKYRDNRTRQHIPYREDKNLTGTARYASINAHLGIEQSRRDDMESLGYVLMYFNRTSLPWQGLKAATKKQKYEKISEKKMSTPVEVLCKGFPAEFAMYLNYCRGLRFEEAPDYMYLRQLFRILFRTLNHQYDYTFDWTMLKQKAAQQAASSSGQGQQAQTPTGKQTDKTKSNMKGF
T1 sequence (Q96SW2 whole entry): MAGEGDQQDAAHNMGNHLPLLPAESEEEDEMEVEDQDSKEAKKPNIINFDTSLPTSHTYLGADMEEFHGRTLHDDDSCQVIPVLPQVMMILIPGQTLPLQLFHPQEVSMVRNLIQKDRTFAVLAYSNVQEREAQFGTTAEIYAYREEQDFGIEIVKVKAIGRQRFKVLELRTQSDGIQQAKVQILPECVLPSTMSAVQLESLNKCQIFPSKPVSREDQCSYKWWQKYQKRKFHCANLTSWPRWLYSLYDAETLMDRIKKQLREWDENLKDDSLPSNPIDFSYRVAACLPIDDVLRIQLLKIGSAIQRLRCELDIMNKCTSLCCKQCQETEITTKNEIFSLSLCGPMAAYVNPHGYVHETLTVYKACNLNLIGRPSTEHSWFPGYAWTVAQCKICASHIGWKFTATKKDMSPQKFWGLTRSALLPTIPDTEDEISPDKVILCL
T1 sequence (Q16531 whole entry partner): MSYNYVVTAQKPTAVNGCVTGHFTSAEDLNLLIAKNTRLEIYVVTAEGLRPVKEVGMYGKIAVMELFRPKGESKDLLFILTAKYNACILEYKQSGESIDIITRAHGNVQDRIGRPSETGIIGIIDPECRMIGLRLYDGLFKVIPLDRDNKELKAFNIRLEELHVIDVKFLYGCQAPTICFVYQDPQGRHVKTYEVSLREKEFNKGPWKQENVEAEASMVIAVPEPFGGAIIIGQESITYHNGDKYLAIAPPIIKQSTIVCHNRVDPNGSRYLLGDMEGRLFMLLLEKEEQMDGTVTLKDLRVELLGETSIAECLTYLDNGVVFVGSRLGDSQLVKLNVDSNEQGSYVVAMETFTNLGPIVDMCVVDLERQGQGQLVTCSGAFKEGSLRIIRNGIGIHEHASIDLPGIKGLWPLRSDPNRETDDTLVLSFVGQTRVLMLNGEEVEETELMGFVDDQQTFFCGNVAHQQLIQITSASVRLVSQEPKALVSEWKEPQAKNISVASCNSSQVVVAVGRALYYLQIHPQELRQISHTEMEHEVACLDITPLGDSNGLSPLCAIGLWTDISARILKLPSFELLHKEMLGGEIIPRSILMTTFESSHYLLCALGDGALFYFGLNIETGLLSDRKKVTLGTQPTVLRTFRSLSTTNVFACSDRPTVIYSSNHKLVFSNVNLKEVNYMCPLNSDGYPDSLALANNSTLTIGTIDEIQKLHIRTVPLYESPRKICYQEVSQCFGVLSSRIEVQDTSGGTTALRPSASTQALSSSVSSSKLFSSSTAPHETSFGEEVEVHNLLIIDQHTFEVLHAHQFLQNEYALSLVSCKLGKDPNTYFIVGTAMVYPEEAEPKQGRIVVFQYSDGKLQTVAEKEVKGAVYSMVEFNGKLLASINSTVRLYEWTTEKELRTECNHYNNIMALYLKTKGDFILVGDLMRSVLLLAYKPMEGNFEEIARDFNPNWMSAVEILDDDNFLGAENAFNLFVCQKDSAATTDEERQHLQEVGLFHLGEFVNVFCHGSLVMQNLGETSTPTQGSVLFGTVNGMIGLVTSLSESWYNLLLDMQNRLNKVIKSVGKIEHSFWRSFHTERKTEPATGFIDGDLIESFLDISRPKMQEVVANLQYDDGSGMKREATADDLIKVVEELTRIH

| Structure (SMILES) | DC50 | Y |
| --- | --- | --- |
| C[C@@H](NC(=O)c1ccc2c(c1)CN(C1CCC(=O)NC1=O)C2=O)C1CCCC1 (stereo partly drawn) [Example 132] | 100 to 500 nM | ** (a Y value (shown as**) of 20%<Y≤35%) |
| CC(C)[C@H](NC(=O)c1ccc2c(c1)CN(C1CCC(=O)NC1=O)C2=O)c1ccc(Cl)cc1 (stereo partly drawn) [Example 177, N-((S)-1-(4-chlorophenyl)-2-methylpropyl)-2-(2,6-dioxopiperidin-3-yl)-1-oxoisoindoline-5-carboxamide] | < 100 nM | * (a Y value (shown as *) of 0<Y≤20%) |
| O=C1CCC(N2Cc3c(ccc(C(=O)N[C@H](c4ccc(Cl)cc4)C(F)(F)F)c3F)C2=O)C(=O)N1 (stereo partly drawn) [Example 93, N-((R)-1-(4-chlorophenyl)-2,2,2-trifluoroethyl)-2-(2,6-dioxopiperidin-3-yl)-4-fluoro-1-oxoisoindoline-5-carboxamide] | < 100 nM | * (a Y value (shown as *) of 0<Y≤20%) |
| O=C1CCC(N2Cc3cc(C(=O)N[C@H](c4ncc(Cl)cc4F)C(F)(F)F)ccc3C2=O)C(=O)N1 (stereo partly drawn) [Example 127, N-((R)-1-(5-chloro-3-fluoropyridin-2-yl)-2,2,2-trifluoroethyl)-2-(2,6-dioxopiperidin-3-yl)-1-oxoisoindoline-5-carboxamide] | < 100 nM | * (a Y value (shown as *) of 0<Y≤20%) |
| CC(C)(CO)[C@@H](NC(=O)c1ccc2c(c1)CN(C1CCC(=O)NC1=O)C2=O)C(F)(F)F (stereo partly drawn) [Example 95, 2-(2,6-dioxopiperidin-3-yl)-1-oxo-N-((R)-1,1,1-trifluoro-4-hydroxy-3,3-dimethylbutan-2-yl)isoindoline-5-carboxamide] | 500 to 1000 nM | ** (a Y value (shown as**) of 20%<Y≤35%) |
| CC(C)(C)[C@@H](NC(=O)c1ccc2c(c1)CN(C1CCC(=O)NC1=O)C2=O)C(F)(F)F (stereo partly drawn) [Example 34, 2-(2,6-dioxopiperidin-3-yl)-1-oxo-N-((R)-1,1,1-trifluoro-3,3-dimethylbutan-2-yl)isoindoline-5-carboxamide] | 100 to 500 nM | ** (a Y value (shown as**) of 20%<Y≤35%) |
| O=C1CCC(N2Cc3cc(C(=O)N[C@H](c4cccc(Cl)c4)C(F)(F)F)ccc3C2=O)C(=O)N1 (stereo partly drawn) [Example 43, N-((R)-1-(3-chlorophenyl)-2,2,2-trifluoroethyl)-2-(2,6-dioxopiperidin-3-yl)-1-oxoisoindoline-5-carboxamide] | < 100 nM | * (a Y value (shown as *) of 0<Y≤20%) |

Next, values leading:

| DC50 | Y | Structure (SMILES) |
| --- | --- | --- |
| < 100 nM | * (a Y value (shown as *) of 0<Y≤20%) | Cc1ccccc1[C@@H](NC(=O)c1ccc2c(c1F)CN(C1CCC(=O)NC1=O)C2=O)C(F)(F)F (stereo partly drawn) [Example 128, 2-(2,6-dioxopiperidin-3-yl)-4-fluoro-1-oxo-N-((R)-2,2,2-trifluoro-1-o-tolylethyl)isoindoline-5-carboxamide] |
| 100 to 500 nM | ** (a Y value (shown as**) of 20%<Y≤35%) | O=C1CCC(N2Cc3c(ccc(C(=O)N[C@@H](CC(F)(F)F)c4cccc(F)c4)c3F)C2=O)C(=O)N1 (stereo partly drawn) [Example 146, 2-(2,6-dioxopiperidin-3-yl)-4-fluoro-1-oxo-N-((S)-3,3,3-trifluoro-1-(3-fluorophenyl)propyl)isoindoline-5-carboxamide] |
| < 100 nM | * (a Y value (shown as *) of 0<Y≤20%) | C[C@H](NC(=O)c1ccc2c(c1)CN(C1CCC(=O)NC1=O)C2=O)C1CCCC1 (stereo partly drawn) [Example 3] |
| < 100 nM | * (a Y value (shown as *) of 0<Y≤20%) | O=C1CCC(N2Cc3c(ccc(C(=O)N[C@@H](C(F)(F)F)C45CC(C4)C5)c3F)C2=O)C(=O)N1 (stereo partly drawn) [Example 138, N-((R)-1-(bicyclo[1.1.1]pentan-1-yl)-2,2,2-trifluoroethyl)-2-(2,6-dioxopiperidin-3-yl)-4-fluoro-1-oxoisoindoline-5-carboxamide] |
| < 100 nM | * (a Y value (shown as *) of 0<Y≤20%) | CC(C)[C@H](NC(=O)c1ccc2c(c1)CN(C1CCC(=O)NC1=O)C2=O)c1ccccc1Cl (stereo partly drawn) [Example 169, N-((S)-1-(2-chlorophenyl)-2-methylpropyl)-2-(2,6-dioxopiperidin-3-yl)-1-oxoisoindoline-5-carboxamide] |
